Assays:
[1] = target: GDP-bound HRAS wild-type protein (Homo sapiens, UniProt P01112); experiment: Binding to HRAS by surface plasmon resonance (SPR), Single Cycle Kinetics; conditions: KD ratio, GDP-bound HRAS wild-type vs GDP-bound KRAS wild-type, SPR
[2] = target: GDP-bound NRAS wild-type protein (Homo sapiens, UniProt P01111); experiment: Binding to NRAS by surface plasmon resonance (SPR), Single Cycle Kinetics; conditions: KD ratio, GDP-bound NRAS wild-type vs GDP-bound KRAS wild-type, SPR
GDP-bound NRAS wild-type protein, sequence (P01111 whole entry): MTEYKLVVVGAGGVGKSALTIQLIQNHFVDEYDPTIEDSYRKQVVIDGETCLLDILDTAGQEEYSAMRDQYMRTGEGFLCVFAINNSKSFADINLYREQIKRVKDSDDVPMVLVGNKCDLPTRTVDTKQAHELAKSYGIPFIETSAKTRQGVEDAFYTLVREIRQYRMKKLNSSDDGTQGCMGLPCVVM

GDP-bound HRAS wild-type protein, sequence (P01112 whole entry): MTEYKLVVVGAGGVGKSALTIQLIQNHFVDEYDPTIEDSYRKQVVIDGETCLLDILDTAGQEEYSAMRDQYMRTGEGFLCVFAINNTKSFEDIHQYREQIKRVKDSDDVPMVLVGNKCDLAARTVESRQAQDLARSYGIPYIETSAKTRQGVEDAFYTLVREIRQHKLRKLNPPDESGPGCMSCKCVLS

SMILES	HRAS/KRAS (ratio of KD value with respect to HRAS to KD value with respect to KRAS) [1]	NRAS/KRAS (ratio of KD value with respect to NRAS to KD value with respect to KRAS) [2]
CCO[C@@H]1C[C@H]2C(=O)NC3(CCC3)C(=O)N(C)[C@@H](C3CCCC3)C(=O)N(C)[C@H](C(=O)N3CCOCC3)CC(=O)N(C)[C@@H](Cc3cccc(F)c3)C(=O)N[C@@H]([C@@H](C)CC)C(=O)N(C)CC(=O)N(C)[C@H]3CCCCCN(C3=O)[C@@H](Cc3ccc(C(F)(F)F)cc3)C(=O)N(C)CC(=O)N[C@@H](CCc3cc(F)c(C(F)(F)F)c(F)c3)C(=O)N2C1 [PP0856]	B (a compound having 3 or more and less than 10 is denoted as B)	B (a compound having 3 or more and less than 10 is denoted as B)
CCO[C@@H]1C[C@H]2C(=O)NC3(CCC3)C(=O)N(C)[C@@H](C3CCCC3)C(=O)N(C)[C@H](C(=O)N3CCOCC3)CC(=O)N(C)[C@@H](Cc3cccc(Cl)c3)C(=O)N[C@@H]([C@@H](C)CC)C(=O)N(C)CC(=O)N(C)[C@H]3CCCCCN(C3=O)[C@@H](Cc3ccc(C(F)(F)F)cc3)C(=O)N(C)CC(=O)N[C@@H](CCc3cc(F)c(C(F)(F)F)c(F)c3)C(=O)N2C1 [PP0857]	B (a compound having 3 or more and less than 10 is denoted as B)	B (a compound having 3 or more and less than 10 is denoted as B)
CCO[C@@H]1C[C@H]2C(=O)NC3(CCC3)C(=O)N(C)[C@@H](C3CCCC3)C(=O)N(C)[C@H](C(=O)N3CCOCC3)CC(=O)N(C)[C@@H](COC)C(=O)N[C@@H]([C@@H](C)CC)C(=O)NCC(=O)N(C)[C@H]3CCCCCN(C3=O)[C@@H](Cc3ccc(C(F)(F)F)cc3)C(=O)N(C)CC(=O)N[C@@H](CCc3cc(F)c(C(F)(F)F)c(F)c3)C(=O)N2C1 [PP0858]	B (a compound having 3 or more and less than 10 is denoted as B)	B (a compound having 3 or more and less than 10 is denoted as B)
CCO[C@@H]1C[C@H]2C(=O)NC3(CCC3)C(=O)N(C)[C@@H](C3CCCC3)C(=O)N(C)[C@H](C(=O)N(C)C)CC(=O)N(C)[C@@H](COC)C(=O)N[C@@H]([C@@H](C)CC)C(=O)NCC(=O)N(C)[C@H]3CCCCCN(C3=O)[C@@H](Cc3ccc(C(F)(F)F)cc3)C(=O)N(C)CC(=O)N[C@@H](CCc3cc(F)c(C(F)(F)F)c(F)c3)C(=O)N2C1 [PP0859]	B (a compound having 3 or more and less than 10 is denoted as B)	B (a compound having 3 or more and less than 10 is denoted as B)
CC[C@H](C)[C@@H]1NC(=O)[C@H](COC)N(C)C(=O)C[C@@H](C(=O)N2CCOCC2)N(C)C(=O)[C@H](C2CCCC2)N(C)C(=O)C2(CCC2)NC(=O)[C@@H]2CCCN2C(=O)[C@H](CCc2cc(F)c(C(F)(F)F)c(F)c2)NC(=O)CN(C)C(=O)[C@H](Cc2ccc(C(F)(F)F)cc2)N2CCCCC[C@@H](C2=O)N(C)C(=O)CNC1=O [PP0860]	B (a compound having 3 or more and less than 10 is denoted as B)	B (a compound having 3 or more and less than 10 is denoted as B)
CC[C@H](C)[C@@H]1NC(=O)[C@H](COC)N(C)C(=O)C[C@@H](C(=O)N2CCOCC2)N(C)C(=O)[C@H](C2CCCC2)N(C)C(=O)C2(CCC2)NC(=O)[C@@H]2CC(F)(F)CN2C(=O)[C@H](CCc2cc(F)c(C(F)(F)F)c(F)c2)NC(=O)CN(C)C(=O)[C@H](Cc2ccc(C(F)(F)F)cc2)N2CCCCC[C@@H](C2=O)N(C)C(=O)CNC1=O [PP0861]	B (a compound having 3 or more and less than 10 is denoted as B)	B (a compound having 3 or more and less than 10 is denoted as B)
CCO[C@@H]1C[C@H]2C(=O)NC3(CCCC3)C(=O)N(C)[C@@H](C3CCCC3)C(=O)N(C)[C@H](C(=O)N3CCOCC3)CC(=O)N(C)[C@@H](COC)C(=O)N[C@@H]([C@@H](C)CC)C(=O)NCC(=O)N(C)[C@H]3CCCCCN(C3=O)[C@@H](Cc3ccc(C(F)(F)F)cc3)C(=O)N(C)CC(=O)N[C@@H](CCc3cc(F)c(C(F)(F)F)c(F)c3)C(=O)N2C1 [PP0862]	B (a compound having 3 or more and less than 10 is denoted as B)	B (a compound having 3 or more and less than 10 is denoted as B)
CCO[C@@H]1C[C@H]2C(=O)NC3(CCC3)C(=O)N(C)[C@@H](C3CCCC3)C(=O)N(C)[C@H](C(=O)N3CCOCC3)CC(=O)N(C)[C@@H](COC)C(=O)N[C@@H]([C@@H](C)CC)C(=O)N3CC[C@H]3C(=O)N(C)[C@H]3CCCCCN(C3=O)[C@@H](Cc3ccc(C(F)(F)F)cc3)C(=O)N(C)CC(=O)N[C@@H](CCc3cc(F)c(C(F)(F)F)c(F)c3)C(=O)N2C1 [PP0863]	B (a compound having 3 or more and less than 10 is denoted as B)	B (a compound having 3 or more and less than 10 is denoted as B)
CCO[C@@H]1C[C@H]2C(=O)NC3(CCC3)C(=O)N(C)[C@@H](C3CCCC3)C(=O)N(C)[C@H](C(=O)N(C)C)CC(=O)N(C)[C@@H](COC)C(=O)N[C@@H]([C@@H](C)CC)C(=O)N3CC[C@H]3C(=O)N(C)[C@H]3CCCCCN(C3=O)[C@@H](Cc3ccc(C(F)(F)F)cc3)C(=O)N(C)CC(=O)N[C@@H](CCc3cc(F)c(C(F)(F)F)c(F)c3)C(=O)N2C1 [PP0864]	B (a compound having 3 or more and less than 10 is denoted as B)	B (a compound having 3 or more and less than 10 is denoted as B)
CC[C@H](C)[C@@H]1NC(=O)[C@H](COC)N(C)C(=O)C[C@@H](C(=O)N2CCOCC2)N(C)C(=O)[C@H](C2CCCC2)N(C)C(=O)C2(CCC2)NC(=O)[C@@H]2CCCN2C(=O)[C@H](CCc2cc(F)c(C(F)(F)F)c(F)c2)NC(=O)CN(C)C(=O)[C@H](Cc2ccc(C(F)(F)F)cc2)N2CCCCC[C@@H](C2=O)N(C)C(=O)[C@@H]2CCN2C1=O [PP0865]	B (a compound having 3 or more and less than 10 is denoted as B)	B (a compound having 3 or more and less than 10 is denoted as B)
CC[C@H](C)[C@@H]1NC(=O)[C@H](COC)N(C)C(=O)C[C@@H](C(=O)N2CCOCC2)N(C)C(=O)[C@H](C2CCCC2)N(C)C(=O)C2(CCC2)NC(=O)[C@@H]2CC(F)(F)CN2C(=O)[C@H](CCc2cc(F)c(C(F)(F)F)c(F)c2)NC(=O)CN(C)C(=O)[C@H](Cc2ccc(C(F)(F)F)cc2)N2CCCCC[C@@H](C2=O)N(C)C(=O)[C@@H]2CCN2C1=O [PP0866]	B (a compound having 3 or more and less than 10 is denoted as B)	B (a compound having 3 or more and less than 10 is denoted as B)
CCO[C@@H]1C[C@H]2C(=O)NC3(CCCC3)C(=O)N(C)[C@@H](C3CCCC3)C(=O)N(C)[C@H](C(=O)N3CCOCC3)CC(=O)N(C)[C@@H](COC)C(=O)N[C@@H]([C@@H](C)CC)C(=O)N3CC[C@H]3C(=O)N(C)[C@H]3CCCCCN(C3=O)[C@@H](Cc3ccc(C(F)(F)F)cc3)C(=O)N(C)CC(=O)N[C@@H](CCc3cc(F)c(C(F)(F)F)c(F)c3)C(=O)N2C1 [PP0867]	B (a compound having 3 or more and less than 10 is denoted as B)	B (a compound having 3 or more and less than 10 is denoted as B)
CC[C@H](C)[C@@H]1NC(=O)[C@H](CC(C)C)N(C)C(=O)C[C@@H](C(=O)N2CCOCC2)N(C)C(=O)[C@H](C2CCCC2)N(C)C(=O)C2(CCC2)NC(=O)[C@@H]2C[C@@H](O)CN2C(=O)[C@H](CCc2cc(F)c(C(F)(F)F)c(F)c2)NC(=O)CN(C)C(=O)[C@H](Cc2ccc(C(F)(F)F)cc2)N2CCCC[C@@H](C2=O)N(C)C(=O)CN(C)C1=O [PP0868]	B (a compound having 3 or more and less than 10 is denoted as B)	C (A compound having a KD ratio of 0.1 or more and less than 3 is denoted as C)
CC[C@H](C)[C@@H]1NC(=O)[C@H](CC(C)C)N(C)C(=O)C[C@@H](C(=O)N2CCOCC2)N(C)C(=O)[C@H](C2CCCC2)N(C)C(=O)C2(CCC2)NC(=O)[C@@H]2[C@@H](O)CCN2C(=O)[C@H](CCc2cc(F)c(C(F)(F)F)c(F)c2)NC(=O)CN(C)C(=O)[C@H](Cc2ccc(C(F)(F)F)cc2)N2CCCC[C@@H](C2=O)N(C)C(=O)CN(C)C1=O [PP0869]	B (a compound having 3 or more and less than 10 is denoted as B)	B (a compound having 3 or more and less than 10 is denoted as B)
CC[C@H](C)[C@@H]1NC(=O)[C@H](CC(C)C)N(C)C(=O)C[C@@H](C(=O)N2CCOCC2)N(C)C(=O)[C@H](C2CCCC2)N(C)C(=O)C2(CCC2)NC(=O)[C@@H]2[C@H](O)CCN2C(=O)[C@H](CCc2cc(F)c(C(F)(F)F)c(F)c2)NC(=O)CN(C)C(=O)[C@H](Cc2ccc(C(F)(F)F)cc2)N2CCCC[C@@H](C2=O)N(C)C(=O)CN(C)C1=O [PP0870]	B (a compound having 3 or more and less than 10 is denoted as B)	B (a compound having 3 or more and less than 10 is denoted as B)
CC[C@H](C)[C@@H]1NC(=O)[C@H](CC(C)C)N(C)C(=O)C[C@@H](C(=O)N2CCOCC2)N(C)C(=O)[C@H](C2CCCC2)N(C)C(=O)C2(CCC2)NC(=O)[C@@H]2C[C@@H](O)CN2C(=O)[C@H](CCc2cc(F)c(C(F)(F)F)c(F)c2)NC(=O)CN(C)C(=O)[C@H](Cc2ccc(C(F)(F)F)cc2)N2CCCCC[C@@H](C2=O)N(C)C(=O)CN(C)C1=O [PP0871]	B (a compound having 3 or more and less than 10 is denoted as B)	B (a compound having 3 or more and less than 10 is denoted as B)

Reference: patent publication US20250230193A1, “CYCLIC COMPOUND HAVING SELECTIVE KRAS INHIBITORY EFFECT ON HRAS AND NRAS” (CHUGAI SEIYAKU KABUSHIKI KAISHA, priority 2022, published 2025)
